GI50 and TGI data for 13 compounds are collected here from PubChem BioAssay (NCI).

What all share (assay): growth of human tumour cells (NCI), 48 h
For assay [1], the system named is PC-3 prostate.
Assay [2] has as its system MOLT-4 leukemia.
The subject of assay [3] is HCC-2998 colon.
Assay [4] deals with HOP-92 NSCLC.
Assay [5] concerns MALME-3M melanoma.
Assay [6] concerns UACC-257 melanoma.
For assay [7], the system named is OVCAR-3 ovarian.
The test system of assay [8] is HOP-62 NSCLC.
The subject of assay [9] is BT-549 breast.
The subject of assay [10] is MCF7 breast.

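Compound exposure: 48 hours, 5 concentrations, 96-well plates. Here, GI50 denotes the concentration required for 50% inhibition of growth. TGI denotes the concentration required for complete inhibition of growth.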 Where only a bound is given, the exact number is not on record here.

As to `O=C(OCc1ccc2c(Cl)cc(Cl)c(O)c2n1)c1cc2ccccc2[nH]1`, the GI50 in [1] was 0.407 µM; in assay [2] it was 0.407 µM; in assay [3], 1.51 µM; in assay [4], 0.228 µM; in assay [5], 1.26 µM; in assay [6] it was 0.88 µM. Further, the GI50 is 0.198 µM in assay [7], 1.63 µM in assay [8] and 0.265 µM in assay [9]. The TGI was 0.936 µM in [1]; 2.35 µM in assay [2]; 3.02 µM in assay [3]; 0.722 µM in assay [4]; 2.6 µM in [5]; 3 µM in assay [6]. Moreover, the TGI in assay [7] amounted to 0.398 µM; in assay [8] it was 3.81 µM; in assay [9], 0.845 µM.

Turning to `CN(C)c1n/c(=N/c2ncn[nH]2)ss1`, the TGI in assay [2], in assay [3], in assay [4], in assay [5], in [6] and in [8] was above 100 µM in each case.

As to `Cn1c2c(c3ccccc31)CCN(CCCCN1CCN(c3cccc(Cl)c3)CC1)C2=O`, the TGI in assay [2] turned out to be 31.6 µM; in [4], 34.7 µM; in assay [6], 19.8 µM; in assay [7] it was 34 µM; in assay [8], 30.7 µM.

For `CC1=C[S+](c2ccccc2)c2cccc3cc4ccccc4c1c23` (stereo not drawn), the GI50 was 0.247 µM in [1]; 0.572 µM in assay [2]; 0.406 µM in [3]; 0.506 µM in assay [4]; 0.372 µM in assay [5]; 0.315 µM in assay [6]. For the same compound, the GI50 is 0.323 µM in assay [7], 0.486 µM in assay [8] and 0.216 µM in [9]. Also, the TGI in assay [1] stood at 12.1 µM; in assay [2], 9.26 µM; in [3], 1.58 µM; in assay [4] it was 2.43 µM; in assay [5] it was 2.22 µM; in assay [6], 1.68 µM. Also, the TGI in assay [7] worked out at 1.44 µM; in assay [9] it was 0.717 µM.

`c1ccc(COCC2OC3c4ccccc4COC3C2OCc2ccccc2)cc1` (stereo not drawn): the TGI in assay [2] was above 100 µM; in assay [3] it was above 100 µM; in assay [4], 87.1 µM; in assay [5], above 100 µM; in assay [6], above 100 µM; in [7] it was above 100 µM.

As for `O=C1C2c3[nH]c4ccccc4c3[C@@H]3CCCCC3C2C(=O)N1c1ccccc1` (stereo partly drawn), the TGI is 62.9 µM in [2], 36.5 µM in assay [3], 38.4 µM in [5] and 30.1 µM in [7].

As to `O=C1C(Cl)=C(Nc2cccc(O)c2)C(=O)N1c1ccccc1Cl`, the GI50 is 10.7 µM in assay [1]; 15.8 µM in [2]; 29.8 µM in [10]; 10.9 µM in assay [5]; 21.5 µM in [7]; 32.9 µM in [8]. Also, in [9], the GI50 was 21.8 µM. Moreover, the TGI in assay [1] is 31.2 µM; in assay [2], 38.1 µM; in assay [10] it was above 100 µM; in assay [5], 69.1 µM; in assay [7] it was 48.5 µM; in assay [8], above 100 µM. In addition, the TGI in [9] is 75.4 µM.

On to `Cc1cc(C)c(S(=O)(=O)ONC(=O)OC(C)(C)C)c(C)c1`, for which the TGI in [2], in assay [3], in assay [4], in assay [5], in assay [6] and in assay [7] was above 100 µM throughout. The compound further gave a TGI in [8] above 100 µM.

On to `COC(OC)[C@@H](C)[C@H](O)[C@](C)(O)C1OC(C)(C)OC(C(C)C=C(C)C)C1C` (stereo partly drawn), for which the TGI in assay [2], in [4], in assay [5], in assay [6], in [7] and in [8] was above 100 µM in each case.

As for `CCOC(=O)NC(=O)c1cn(CCN2CCN(C(=O)CCCCCCCCCCNc3ncnc4nc[nH]c34)CC2)c(=O)[nH]c1=O`, the TGI in assay [2], in assay [3], in assay [4], in assay [5], in [6] and in assay [7] was above 100 µM each time. This compound gave a TGI in [8] above 100 µM.

Consider `C=C1C(=O)O[C@H]2[C@H]1CC/C(COC(=O)c1ccc(C#N)cc1)=C\CC[C@@]1(C)O[C@@H]21`, for which the GI50 in assay [1] was 3.97 µM; in assay [2], 2.37 µM; in [3] it was 4.1 µM; in assay [4], 1.59 µM; in assay [5], 2.04 µM; in [6] it was 1.69 µM. Further, the GI50 in assay [7] is 1.36 µM; in [8], 7.43 µM; in [9], 1.44 µM. For the same compound, the TGI worked out at 15.6 µM in assay [1]; 6.52 µM in assay [2]; 14.3 µM in assay [3]; 3.8 µM in assay [4]; 4.16 µM in [5]; 4.1 µM in [6]. For the same compound, the results for the TGI in assay [7], in [8] and in assay [9] were 2.75 µM, 22.6 µM and 3.15 µM, respectively.

As to `CSc1ccc(/C=C/c2ccnc3ccccc23)cc1`, the TGI was 19.2 µM in [1]; 66.9 µM in assay [2]; 27.4 µM in [3]; 30.2 µM in [4]; 28.6 µM in assay [10]; 32.6 µM in assay [5]. Besides, the values for the TGI in assay [6], in [7] and in assay [8] were 32.9 µM, 25.9 µM and 34.8 µM, respectively.

In the case of `CNCCCNc1nc2ccccc2c2c(=O)c3cc(Cl)ccc3sc12`, the GI50 in assay [1] is 1.52 µM; in assay [3], 1.69 µM; in assay [4] it was 0.935 µM; in assay [5], 1.87 µM; in assay [6] it was 1.8 µM; in assay [7], 1.61 µM. The GI50 in assay [8] is 1.13 µM; in assay [9], 13.3 µM. Besides, the TGI in assay [1] amounted to 3.02 µM; in assay [3] it was 3.34 µM; in assay [4], 2.81 µM; in [5], 3.62 µM; in assay [6], 3.31 µM; in assay [7], 3.08 µM. Besides, the TGI in [8] came out at 2.44 µM; in [9], 40.5 µM.
